# In patent publication US20110224160A1, “Use of Escin for Treatment of Type IV Hypersensitivity Reaction” (MARINOMED BIOTECHNOLOGIE GMBH, priority 2008, published 2011):
# How the values were obtained:
# [1] = system: oxazolone induced topical inflammation in BALB/c mice; assay: oxazolone induced contact dermatitis model (ear swelling); assay type: in vivo
# Description: FIG. 1: Efficacy of escin in an oxazalone induced contact dermatitis model. 3 mg/kg of escin were applied intraperitoneally (ip.) 6 h before challenge, 0.9% saline solution served as a vehicle. […] Bars represent the mean of five animals, SEM is indicated.
# Escin was evaluated for anti-inflammatory activity by ip. injection in the oxazolone induced topical inflammation in BALB/c mice, which is a model of type IV hypersensitivity reaction, in particular contact dermatitis. The swelling of the challenged ear in comparison to the unchallenged control was determined as a parameter for induced contact dermatitis.
# [2] = system: LPS mediated release of TNF alpha; assay: LPS mediated release of TNF alpha in primary human blood; assay type: cell-based
# [3] = system: strong hypersensitivity reactions; assay: strong hypersensitivity reactions in an in vivo model
substance,measurement,setting,value
escin,inhibition of oxazolone induced ear swelling,"[1]; BALB/c mice, escin 3 mg/kg ip., 6 hours after oxazolone application, challenged vs unchallenged ear",significant inhibition
same,induced topical inflammation in a mouse model of contact dermatitis,[1]; mouse model of contact dermatitis,reduced induced topical inflammation
same,LPS mediated release of TNF alpha,[2],inhibits dose-dependently
same,effects of strong hypersensitivity reactions,[3],reduces the effects of strong hypersensitivity reactions
